These are literature values, as cited in PubChem BioAssay AID1259409 (Chemical Carcinogenesis Research Information System (CCRIS), 2018).

Values joined by “and” are separate entries in the source; they are usually repeats but may differ in a detail not shown here. Equal values may be shown once.

The subject of this data set is rodent chemically induced tumor inhibition, incidence and multiplicity. Kind of data set: CCRIS tumor inhibitor studies.

`O=C(/C=C/c1ccc(O)c(O)c1)O[C@@H]1C[C@](O)(C(=O)O)C[C@@H](O)[C@H]1O`: the “tumour outcome (control, treated, inhibition, significance)” value is listed as 1/15 (7%), 1/15 (7%), 0%, not significant (Carcinogen: 4-NITROQUINOLINE-1-OXIDE, 56-57-5, Dose [Inhibitor]: 0, 250 PPM IN DIET FOR 7 WK BEGINNING 1 WK PRIOR TO START OF CARCINOGEN TREATMENT (STUDY DURATION: 32 WK), Route [Inhibitor]: ORAL, Species: RAT, Strain/Sex: F344/MALE, Target Tissue: Type of Lesion: TONGUE: PAPILLOMA, Dose [Carcinogen]: 20 PPM IN DRINKING WATER FOR 5 WK, Promoter: NONE USED); 68%, 47%, 31%, not calculated (Carcinogen: 7,12-DIMETHYLBENZ[A]ANTHRACENE, 57-97-6, Dose [Inhibitor]: 10 UMOL IN 200 µL ACETONE/DMSO (90:10) 2/WK FOR 19 WK BEGINNING 1 WK POST CARCINOGEN DOSE (STUDY DURATION: 20 WK), Route [Inhibitor]: DERMAL, Species: MOUSE, Strain/Sex: CD-1/FEMALE, Target Tissue: Type of Lesion: SKIN: PAPILLOMA, Dose [Carcinogen]: 200 NMOL IN 200 µL ACETONE ONCE, Promoter: 12-O-TETRADECANOYLPHORBOL-13-ACETATE, 16561-29-8); 68%, 27%, 60%, not calculated (Carcinogen: 7,12-DIMETHYLBENZ[A]ANTHRACENE, 57-97-6, Dose [Inhibitor]: 20 UMOL IN 200 µL ACETONE/DMSO (90:10) 2/WK FOR 19 WK BEGINNING 1 WK POST CARCINOGEN DOSE (STUDY DURATION: 20 WK), Route [Inhibitor]: DERMAL, Species: MOUSE, Strain/Sex: CD-1/FEMALE, Target Tissue: Type of Lesion: SKIN: PAPILLOMA, Dose [Carcinogen]: 200 NMOL IN 200 µL ACETONE ONCE, Promoter: 12-O-TETRADECANOYLPHORBOL-13-ACETATE, 16561-29-8); 12/20 (60.0%), 4/17 (23.5%), 61%, p<0.03 (Carcinogen: N-METHYL-N-NITROSOUREA [684-93-5], Dose [Inhibitor]: 250 PPM IN DIET FOR 22 WK BEGINNING 1 WK POST LAST CARCINOGEN DOSE (STUDY DURATION: 35 WK), Route [Inhibitor]: ORAL, Species: RAT, Strain/Sex: F344/MALE, Target Tissue: Type of Lesion: GLANDULAR STOMACH: ADENOCARCINOMA, Dose [Carcinogen]: 400 PPM IN DRINKING WATER FOR 12 WK (STUDY DURATION: 35 WK), Promoter: NONE); 12/20 (60.0%), 7/21 (33.3%), 45%, not significant (Carcinogen: N-METHYL-N-NITROSOUREA [684-93-5], Dose [Inhibitor]: 500 PPM IN DIET FOR 22 WK BEGINNING 1 WK POST LAST CARCINOGEN DOSE (STUDY DURATION: 35 WK), Route [Inhibitor]: ORAL, Species: RAT, Strain/Sex: F344/MALE, Target Tissue: Type of Lesion: GLANDULAR STOMACH: ADENOCARCINOMA, Dose [Carcinogen]: 400 PPM IN DRINKING WATER FOR 12 WK (STUDY DURATION: 35 WK), Promoter: NONE); 9/15 (60%), 1/15 (7%), 88%, p=0.0025 (Carcinogen: N-NITROQUINOLINE-1-OXIDE, 56-57-5, Dose [Inhibitor]: 0, 250 PPM IN DIET FOR 7 WK BEGINNING 1 WK PRIOR TO START OF CARCINOGEN TREATMENT (STUDY DURATION: 32 WK), Route [Inhibitor]: ORAL, Species: RAT, Strain/Sex: F344\MALE, Target Tissue: Type of Lesion: TONGUE: CARCINOMA, Dose [Carcinogen]: 20 PPM IN DRINKING WATER FOR 5 WK, Promoter: NONE USED).

Turning to `Cc1cc(O)cc(=O)o1`, under “Carcinogen: BENZO[A]PYRENE, 50-32-8, Dose [Inhibitor]: 0.034 MMOL/G IN DIET FOR 5 WK BEGINNING 1 WK PRIOR TO FIRST CARCINOGEN DOSE AND CONTINUING FOR 3 D POST LAST CARCINOGEN, Route [Inhibitor]: ORAL, Species: MOUSE, Strain/Sex: ICR/FEMALE, Target Tissue: Type of Lesion: FORESTOMACH: TUMOR, Dose [Carcinogen]: 1 MG IN 0.2 ML CORN OIL 2/WK FOR 4 WK STARTING, Promoter: NONE USED”, the “tumour outcome (control, treated, inhibition, significance)” value is 94%, 85%, 10%, not significant.

As for `COc1ccc(O)cc1C(C)(C)C`, the “tumour outcome (control, treated, inhibition, significance)” value is 94%, 60%, 36%, p<0.05 and 90%, 65%, 28%, not significant (Carcinogen: BENZO[A]PYRENE, 50-32-8, Dose [Inhibitor]: 0.03 MMOL/G OF DIET DAILY STARTING 7 D BEFORE AND CONTINUING THROUGH 3 D AFTER CARCINOGEN TREATMENT FOLLOWED BY OBSERVAT, Route [Inhibitor]: ORAL, Species: MOUSE, Strain/Sex: ICR/FEMALE, Target Tissue: Type of Lesion: FORESTOMACH: NEOPLASM, Dose [Carcinogen]: 1 MG IN 0.2 ML CORN OIL 2/WK FOR 4 WK, Promoter: NONE USED); 22/25 (88%), 12/25 (48%), 45%, p<0.005 (Carcinogen: CIPROFIBRATE, 52214-84-3, Dose [Inhibitor]: 0.5% IN DIET FOR 60 WK (STUDY DURATION: 60 WK), Route [Inhibitor]: ORAL, Species: RAT, Strain/Sex: F344/MALE, Target Tissue: Type of Lesion: LIVER: TUMOR, Dose [Carcinogen]: 10 MG/KG/BW IN DIET SIMULTANEOUSLY WITH INHIBITOR FOR 60 WK, Promoter: NONE USED).

With `O=C(O)CCSCCC(=O)O`, the “tumour outcome (control, treated, inhibition, significance)” value was 7/19 (37%), 2/19 (11%), 72%, not calculated (Carcinogen: 7,12-DIMETHYLBENZ[A]ANTHRACENE, 57-97-6, Dose [Inhibitor]: 1.0% IN POWDERED DIET BEGINNING 1 WK POST CARCINOGEN DOSE FOR 51 WK (STUDY DURATION: 52 WK), Route [Inhibitor]: ORAL, Species: RAT, Strain/Sex: SPRAGUE-DAWLEY/FEMALE, Target Tissue: Type of Lesion: EAR DUCT: BENIGN TUMOR, Dose [Carcinogen]: 2.5 MG/100 G BW IN 0.5 ML SESAME OIL ONCE, Promoter: NONE USED) and 15/19 (79%), 9/19 (47%), 40%, not calculated (Carcinogen: 7,12-DIMETHYLBENZ[A]ANTHRACENE, 57-97-6, Dose [Inhibitor]: 1.0% IN POWDERED DIET BEGINNING 1 WK POST CARCINOGEN DOSE FOR 51 WK (STUDY DURATION: 52 WK), Route [Inhibitor]: ORAL, Species: RAT, Strain/Sex: SPRAGUE-DAWLEY/FEMALE, Target Tissue: Type of Lesion: MAMMARY GLAND: FIBROADENOMA, Dose [Carcinogen]: 2.5 MG/100 G BW IN 0.5 ML SESAME OIL ONCE, Promoter: NONE USED).

Regarding `CC(=O)Oc1c(C)c(C)c2c(c1C)CC[C@@](C)(CCC[C@H](C)CCC[C@H](C)CCCC(C)C)O2`, the “tumour outcome (control, treated, inhibition, significance)” value reads like this: (Carcinogen: 7,12-DIMETHYLBENZ[A]ANTHRACENE, 57-97-6, Dose [Inhibitor]: 0, 0.2% IN DIET BEGINNING 1 WK PRIOR TO CARCINOGEN DOSE AND CONTINUING FOR 12 WK (STUDY DURATION: 13 WK), Route [Inhibitor]: ORAL, Species: RAT, Strain/Sex: SPRAGUE-DAWLEY/FEMALE, Target Tissue: Type of Lesion: MAMMARY GLAND: TUMORS, Dose [Carcinogen]: 10 MG IN 1 ML CORN OIL ONCE, Promoter: NONE USED) 100%, 80%, 20%, p<0.05; (Carcinogen: 7,12-DIMETHYLBENZ[A]ANTHRACENE, 57-97-6, Dose [Inhibitor]: 0, 10 UMOL 1/WK 5 MIN PRIOR TO EACH PROMOTER DOSE BEGINNING 2 WK POST CARCINOGEN DOSE AND CONTINUING FOR 29 WK (STUDY DU, Route [Inhibitor]: DERMAL, Species: MOUSE, Strain/Sex: SENCAR/FEMALE, Target Tissue: Type of Lesion: SKIN: PAPILLOMA, Dose [Carcinogen]: 25 NMOL ONCE, Promoter: CHRYSAROBIN, 491-58-7) 100%, 93%, 7%, not significant; (Carcinogen: 7,12-DIMETHYLBENZ[A]ANTHRACENE, 57-97-6, Dose [Inhibitor]: 0, 40 UMOL 1/WK 5 MIN PRIOR TO EACH PROMOTER DOSE BEGINNING 2 WK PRIOR TO CARCINOGEN DOSE AND CONTINUING FOR 29 WK (STUD, Route [Inhibitor]: DERMAL, Species: MOUSE, Strain/Sex: SENCAR/FEMALE, Target Tissue: Type of Lesion: SKIN: PAPILLOMA, Dose [Carcinogen]: 25 NMOL ONCE, Promoter: CHRYSAROBIN, 491-58-7) 100%, 68%, 32%, not calculated; (Carcinogen: ETHYLNITROSOUREA, 759-73-9, Dose [Inhibitor]: 0, 600 MG/KG IN 1:10 (VOLUME: VOLUME) SUNFLOWER OIL IN DIET 5 D/WK FOR 18 MO (STUDY DURATION: 18 MO), Route [Inhibitor]: ORAL, Species: RAT, Strain/Sex: ALBINO/MALE,FEMALE, Target Tissue: Type of Lesion: BRAIN: GLIOMA OR ASTROCYTOMA, Dose [Carcinogen]: 7.5 MG/KG IN SALINE BY INTRAVENOUS INJECTION ONCE 21 D AFTER CONCEPTION) 22/54 (41%), 19/50 (38%), 7%, not calculated; (Carcinogen: ETHYLNITROSOUREA, 759-73-9, Dose [Inhibitor]: 0, 600 MG/KG IN 1:10 (VOLUME: VOLUME) SUNFLOWER OIL IN DIET 5 D/WK FOR 18 MO (STUDY DURATION: 18 MO), Route [Inhibitor]: ORAL, Species: RAT, Strain/Sex: ALBINO/MALE,FEMALE, Target Tissue: Type of Lesion: NERVOUS SYSTEM: SCHWANNOMA, Dose [Carcinogen]: 7.5 MG/KG IN SALINE BY INTRAVENOUS INJECTION ONCE 21 D AFTER CONCEPTION) 7/54 (13%), 5/50 (10%) 23%, not calculated; (Carcinogen: ETHYLNITROSOUREA, 759-73-9, Dose [Inhibitor]: 0, 600 MG/KG IN 1:10 (VOLUME: VOLUME) SUNFLOWER OIL IN DIET 5 D/WK FOR 18 MO (STUDY DURATION: 18 MO), Route [Inhibitor]: ORAL, Species: RAT, Strain/Sex: ALBINO/MALE,FEMALE, Target Tissue: Type of Lesion: SPINAL CORD: TUMOR, Dose [Carcinogen]: 7.5 MG/KG IN SALINE BY INTRAVENOUS INJECTION ONCE 21 D AFTER CONCEPTION) 3/54 (6%), 6/50 (12%), -100%, not calculated.
